Entries after “also recorded” stand apart in the source; their conditions may differ. Positions of bridges follow the written chain, without caps; N, C: chain ends. Non-standard residues stand in square brackets, D forms with d. No end group written: not given here.
How the values were obtained:
normal urothelial cells = test: Whole cell bead binding assay, normal urothelial cells; set-up: species or system human; settings: peptide on OBOC beads
Procedure: Four bladder cancer cell lines including 5637 (HTB-9), SCaBER, TCCSUP (HTB-5), and T24 (HTB-4) were purchased from the American Type Culture Collection (Manassas, Va.). The isolation, characterization and maintenance of normal urothelial cells was previously described in detail (Bagai, et al., J Biol Chem, (2002) 277: 23828-23837). Normal peripheral blood mononuclear cells were prepared by using the Ficoll-Paque gradient method from peripheral blood of healthy donors. Bladder cancer tissue obtained from cystectomy was cut into pieces, digested with collagenase at 37° C. for 1-2 hours per the manufacturer's protocol, and filtered through a 40-μm strainer to make single cell suspension. Tumor cells were then isolated with Ficoll-Paque gradient method (800 g, 30 min at 4° C.). Informed consent was obtained from each patient or healthy donor before specimens were collected.
The beads were washed extensively with double-distilled water and phosphate-buffered saline (PBS) before screening. Bladder cancer cells and normal urothelial cells were detached from culture dishes with trypsin/EDTA or a Detach kit (PromoCell, Heidelberg, Germany), washed with their corresponding culture medium, resuspended at 10^6 cells/ml and incubated with OBOC beads in Petri dishes in a humidified CO2 incubator at 37° C. with shaking (60 rpm). […]

whole blood cells = test: Whole cell bead binding assay, whole blood cells; set-up: species or system human; settings: peptide on beads
fibroblasts = test: Whole cell bead binding assay, fibroblasts; settings: peptide on beads
[1] = test system: 12 cell lines with different origins; test: Whole cell bead binding assay, 12 cell lines of different origins; set-up: species or system human
5637 TCC cancer cells = test: Bead binding to 5637 cells in urine at pH 6.0; set-up: species or system human; settings: urine at pH 6.0, 4 hours, 37° C.
Procedure: The acidic environment in urine may change the 3-D structure of ligands and affect ligand binding. Here it was determined if the cancer-specific beads could bind to 5637 TCC cancer cells in urine. Cells were incubated with beads in urine at pH 6.0 for 4 hours at 37° C. 4-hour incubation was used to mimic the in vivo urine retention in patients and to permit conformational changes and protease digestion.

[2] = test system: Human bladder cancer cell line 5637; test: Whole cell binding assay of Example 2, 5637 positive control; settings: PLZ4 beads, 10^6 cells/ml
Procedure: This experiment was repeated 3 times for cell lines. […] 5637 human bladder cancer cell line; b. […] The average diameter of the beads is 90 μm. […] This experiment was repeated for 3 times. (200×)
To determine the binding of PLZ4 to canine TCC cell lines, whole cell binding assay was performed. PLZ4 was synthesized on TentaGel S NH2 resin beads (Rapp Polymere Gmbh, Germany) (Pegram, et al., J Clin Oncol (1998) 16:2659-2671), and incubated with single suspensions of five different canine carcinoma cell lines including K9TCC-PU, K9TCC-PU-AxA, K9TCC-PU-In, K9TCC-PU-AxC, and K9TCC-PU-Nk (kindly provided by Deborah Knapp at Purdue University, West Lafayette, Ind., USA) at 10^6 cells/ml. The negative control was normal urothelial cells obtained from dogs that were euthanized due to non-bladder-related disorders. Human bladder cancer cell line, 5637 were served as the positive control. If PLZ4 bound to cells in suspension, then the bead surface was covered with cells. Over 95% of the bead surface was covered with 5637 and K9TCC cells (FIG. 7A-a and b, respectively).

[3] = test system: K9TCC, K9TCC-PU-In and K9TCC-PU-Nk cells; test: WST-8 cell proliferation assay; format: cell-based, canine; settings: 48 hours, various concentrations, compared with PBS control
Procedure: FIG. 8A-B. Binding affinity and biological effects of PLZ4 against canine TCC cell lines. A. Binding affinity of PLZ4 against K9TCC-PU and K9TCC-PU-In. Twenty thousands of K9TCC-PU and K9TCC-PU-In were seeded in 96 well plates. After culture for 24 hours, cells were fixed and incubated with different concentrations of PLZ4-biotin for 1.5 hours following avidin-HRP for another 1 hour. Cells treated with avidin-HRP only were served as background control. The color was developed using TMB substrate and read by ELISA readers. The experiment was performed in triplicates and repeated for 3 times. The mean value of the 3 experiments were shown. B. Biological effects of PLZ4 on canine TCC cell lines. Ten thousand K9TCC-PU-In and K9TCC-PU cells were seeded in the 96 well plates and treated with increasing concentrations of PLZ4 or PBS for 2 days. The cell proliferation assay was assessed by WST-8 assay per manufacturer's protocol. Cells treated with PBS were used as 100% control. Each group was performed in triplicate, repeated for 3 times. Mean values at each concentration are presented.
Ligand binding on the cell surface molecules may initiate cell signaling and exert biological effects on cells. The effect of PLZ4 on cell viability and proliferation was determined, as it may have potential clinical applications. […]

[4] = test system: bladder lymphoid hyperplasia specimen; test: Binding to canine bladder lymphoid hyperplasia specimen; settings: data not shown

cQDGRMGFc ([dC]QDGRMGF[dC]; disulfide 1-9 (inferred)) [PLZ4, bladder cancer-specific ligand peptide]
binding to normal urothelial cells (normal urothelial cells): did not bind | binding to whole blood cells (whole blood cells): did not bind | binding to fibroblasts (fibroblasts): did not bind | binding to 12 cell lines with different origins [1]: did not bind to 10 out of 12 cell lines; also recorded: only bought to one of 12 | binding to 5637 cells in urine (5637 TCC cancer cells): still able to bind cells in urine | bead surface covered with cells [2]: Over 95% | cell proliferation/viability [3]: no significant changes in cell proliferation/viability | binding to a bladder lymphoid hyperplasia specimen [4]: not to a bladder lymphoid hyperplasia specimen

From patent publication US10335365B2, “Bladder cancer specific ligand peptides” (The Regents of the University of California, priority 2009, dated 2019)
